Assay results published in US20120245137A1 (Zalicus Pharmaceuticals Ltd., priority 2009, published 2012).

Key:
Assay type in all cases: cell-based
[1] = target: human α1G T-type channels (Homo sapiens, UniProt O43497); assay: T-type calcium channel block, whole cell patch clamp, α1G; conditions: HEK cells stably expressing human α1G; mainly non-inactivated protocol; values above 10,000 nM represented as 10000
How it was run: (§1)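 Blockade of T-type current was measured in human α1G- or α1H-expressing HEK 293 cells using whole-cell recording with ~5 MΩ pipettes. Test compounds, dissolved in external solution containing 0.1-0.01% DMSO, were applied close to the cell, and block was examined under both non-inactivating and inactivating voltage protocols.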

[2] = target: human α1H T-type channels (Homo sapiens, UniProt O95180); assay: T-type calcium channel block, whole cell patch clamp, α1H; conditions: HEK cells stably expressing human α1H; mainly non-inactivated protocol; values above 10,000 nM represented as 10000
How it was run: as §1

[3] = target: N-type calcium channel subunits (α1B, α2δ, and β3a) (Homo sapiens, UniProt Q00975); assay: Block of Cav2.2 channel, whole cell voltage clamp, manual and PatchXpress; conditions: Table 5; table follows Assay Example 3 (whole cell voltage clamp / PatchXpress); assay not given
How it was run: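 Percent block taken as current amplitude ratio with versus without compound, applied in rising doses; IC50 fitted where one cell received multiple doses. Protocol: 50 ms pulses to +20 mV at 0.067 Hz from […] or −90 mV holding; P/n leak subtraction, no junction-potential correction; manual and PatchXpress recordings.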

Sequence of human α1H T-type channels (O95180 whole entry): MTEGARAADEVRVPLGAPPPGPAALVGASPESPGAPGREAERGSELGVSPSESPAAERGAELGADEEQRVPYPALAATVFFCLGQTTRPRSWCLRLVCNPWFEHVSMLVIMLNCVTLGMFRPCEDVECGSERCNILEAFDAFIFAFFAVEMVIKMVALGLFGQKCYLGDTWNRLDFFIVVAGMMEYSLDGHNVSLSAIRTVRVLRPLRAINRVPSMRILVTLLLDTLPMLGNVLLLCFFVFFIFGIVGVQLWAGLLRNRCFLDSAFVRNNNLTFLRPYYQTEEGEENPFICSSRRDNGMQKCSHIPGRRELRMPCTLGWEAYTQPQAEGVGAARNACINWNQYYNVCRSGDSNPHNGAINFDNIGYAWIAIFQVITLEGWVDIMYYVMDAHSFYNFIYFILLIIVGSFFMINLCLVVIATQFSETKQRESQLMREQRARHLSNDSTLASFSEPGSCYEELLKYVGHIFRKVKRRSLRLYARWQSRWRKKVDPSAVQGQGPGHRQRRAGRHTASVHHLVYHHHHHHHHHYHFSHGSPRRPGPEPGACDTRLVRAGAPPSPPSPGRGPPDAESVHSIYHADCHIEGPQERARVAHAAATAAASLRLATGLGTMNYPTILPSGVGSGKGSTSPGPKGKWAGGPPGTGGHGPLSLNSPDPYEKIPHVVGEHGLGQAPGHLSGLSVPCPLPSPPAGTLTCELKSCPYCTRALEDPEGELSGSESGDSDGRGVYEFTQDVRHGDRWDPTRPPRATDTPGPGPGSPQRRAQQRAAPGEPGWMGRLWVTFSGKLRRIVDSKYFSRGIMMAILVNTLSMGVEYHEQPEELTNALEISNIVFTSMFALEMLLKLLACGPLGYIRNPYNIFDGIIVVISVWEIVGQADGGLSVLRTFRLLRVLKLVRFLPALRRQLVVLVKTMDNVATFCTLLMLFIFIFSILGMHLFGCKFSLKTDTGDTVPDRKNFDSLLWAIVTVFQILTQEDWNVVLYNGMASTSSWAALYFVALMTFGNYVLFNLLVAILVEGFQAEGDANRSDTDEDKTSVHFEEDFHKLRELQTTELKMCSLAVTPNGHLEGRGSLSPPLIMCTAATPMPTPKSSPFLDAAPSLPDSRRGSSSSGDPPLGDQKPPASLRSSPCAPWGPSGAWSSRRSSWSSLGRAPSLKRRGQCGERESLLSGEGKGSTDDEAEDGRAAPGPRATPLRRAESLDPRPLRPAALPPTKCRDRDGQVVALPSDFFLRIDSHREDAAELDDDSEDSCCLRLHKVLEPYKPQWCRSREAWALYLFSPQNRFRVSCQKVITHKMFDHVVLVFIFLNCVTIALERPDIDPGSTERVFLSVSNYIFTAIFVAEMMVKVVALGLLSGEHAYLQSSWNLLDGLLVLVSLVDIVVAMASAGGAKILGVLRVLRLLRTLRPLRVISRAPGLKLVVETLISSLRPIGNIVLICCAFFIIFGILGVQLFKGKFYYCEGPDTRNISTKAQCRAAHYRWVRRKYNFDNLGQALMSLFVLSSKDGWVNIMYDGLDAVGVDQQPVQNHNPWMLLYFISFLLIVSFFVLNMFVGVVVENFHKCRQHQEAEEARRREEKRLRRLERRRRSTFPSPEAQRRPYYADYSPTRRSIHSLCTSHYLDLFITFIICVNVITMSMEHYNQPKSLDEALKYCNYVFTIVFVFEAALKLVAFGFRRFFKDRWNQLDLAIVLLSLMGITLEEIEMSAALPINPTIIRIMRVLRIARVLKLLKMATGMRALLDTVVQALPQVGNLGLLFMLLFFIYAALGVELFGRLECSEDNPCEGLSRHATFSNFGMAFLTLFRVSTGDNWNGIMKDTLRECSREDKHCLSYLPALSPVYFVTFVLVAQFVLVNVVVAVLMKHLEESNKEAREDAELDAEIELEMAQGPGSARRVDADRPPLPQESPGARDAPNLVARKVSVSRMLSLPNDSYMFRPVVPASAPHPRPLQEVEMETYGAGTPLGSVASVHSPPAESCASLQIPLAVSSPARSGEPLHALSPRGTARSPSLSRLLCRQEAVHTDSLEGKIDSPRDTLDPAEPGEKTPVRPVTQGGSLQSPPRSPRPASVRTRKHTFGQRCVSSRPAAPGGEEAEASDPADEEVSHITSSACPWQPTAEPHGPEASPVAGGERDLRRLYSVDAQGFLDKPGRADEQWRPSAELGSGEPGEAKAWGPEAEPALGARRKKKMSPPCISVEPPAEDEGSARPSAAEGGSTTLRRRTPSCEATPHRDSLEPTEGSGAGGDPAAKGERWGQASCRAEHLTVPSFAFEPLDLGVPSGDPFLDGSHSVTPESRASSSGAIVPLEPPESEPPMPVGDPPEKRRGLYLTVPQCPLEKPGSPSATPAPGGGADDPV
Sequence of human α1G T-type channels (O43497 whole entry): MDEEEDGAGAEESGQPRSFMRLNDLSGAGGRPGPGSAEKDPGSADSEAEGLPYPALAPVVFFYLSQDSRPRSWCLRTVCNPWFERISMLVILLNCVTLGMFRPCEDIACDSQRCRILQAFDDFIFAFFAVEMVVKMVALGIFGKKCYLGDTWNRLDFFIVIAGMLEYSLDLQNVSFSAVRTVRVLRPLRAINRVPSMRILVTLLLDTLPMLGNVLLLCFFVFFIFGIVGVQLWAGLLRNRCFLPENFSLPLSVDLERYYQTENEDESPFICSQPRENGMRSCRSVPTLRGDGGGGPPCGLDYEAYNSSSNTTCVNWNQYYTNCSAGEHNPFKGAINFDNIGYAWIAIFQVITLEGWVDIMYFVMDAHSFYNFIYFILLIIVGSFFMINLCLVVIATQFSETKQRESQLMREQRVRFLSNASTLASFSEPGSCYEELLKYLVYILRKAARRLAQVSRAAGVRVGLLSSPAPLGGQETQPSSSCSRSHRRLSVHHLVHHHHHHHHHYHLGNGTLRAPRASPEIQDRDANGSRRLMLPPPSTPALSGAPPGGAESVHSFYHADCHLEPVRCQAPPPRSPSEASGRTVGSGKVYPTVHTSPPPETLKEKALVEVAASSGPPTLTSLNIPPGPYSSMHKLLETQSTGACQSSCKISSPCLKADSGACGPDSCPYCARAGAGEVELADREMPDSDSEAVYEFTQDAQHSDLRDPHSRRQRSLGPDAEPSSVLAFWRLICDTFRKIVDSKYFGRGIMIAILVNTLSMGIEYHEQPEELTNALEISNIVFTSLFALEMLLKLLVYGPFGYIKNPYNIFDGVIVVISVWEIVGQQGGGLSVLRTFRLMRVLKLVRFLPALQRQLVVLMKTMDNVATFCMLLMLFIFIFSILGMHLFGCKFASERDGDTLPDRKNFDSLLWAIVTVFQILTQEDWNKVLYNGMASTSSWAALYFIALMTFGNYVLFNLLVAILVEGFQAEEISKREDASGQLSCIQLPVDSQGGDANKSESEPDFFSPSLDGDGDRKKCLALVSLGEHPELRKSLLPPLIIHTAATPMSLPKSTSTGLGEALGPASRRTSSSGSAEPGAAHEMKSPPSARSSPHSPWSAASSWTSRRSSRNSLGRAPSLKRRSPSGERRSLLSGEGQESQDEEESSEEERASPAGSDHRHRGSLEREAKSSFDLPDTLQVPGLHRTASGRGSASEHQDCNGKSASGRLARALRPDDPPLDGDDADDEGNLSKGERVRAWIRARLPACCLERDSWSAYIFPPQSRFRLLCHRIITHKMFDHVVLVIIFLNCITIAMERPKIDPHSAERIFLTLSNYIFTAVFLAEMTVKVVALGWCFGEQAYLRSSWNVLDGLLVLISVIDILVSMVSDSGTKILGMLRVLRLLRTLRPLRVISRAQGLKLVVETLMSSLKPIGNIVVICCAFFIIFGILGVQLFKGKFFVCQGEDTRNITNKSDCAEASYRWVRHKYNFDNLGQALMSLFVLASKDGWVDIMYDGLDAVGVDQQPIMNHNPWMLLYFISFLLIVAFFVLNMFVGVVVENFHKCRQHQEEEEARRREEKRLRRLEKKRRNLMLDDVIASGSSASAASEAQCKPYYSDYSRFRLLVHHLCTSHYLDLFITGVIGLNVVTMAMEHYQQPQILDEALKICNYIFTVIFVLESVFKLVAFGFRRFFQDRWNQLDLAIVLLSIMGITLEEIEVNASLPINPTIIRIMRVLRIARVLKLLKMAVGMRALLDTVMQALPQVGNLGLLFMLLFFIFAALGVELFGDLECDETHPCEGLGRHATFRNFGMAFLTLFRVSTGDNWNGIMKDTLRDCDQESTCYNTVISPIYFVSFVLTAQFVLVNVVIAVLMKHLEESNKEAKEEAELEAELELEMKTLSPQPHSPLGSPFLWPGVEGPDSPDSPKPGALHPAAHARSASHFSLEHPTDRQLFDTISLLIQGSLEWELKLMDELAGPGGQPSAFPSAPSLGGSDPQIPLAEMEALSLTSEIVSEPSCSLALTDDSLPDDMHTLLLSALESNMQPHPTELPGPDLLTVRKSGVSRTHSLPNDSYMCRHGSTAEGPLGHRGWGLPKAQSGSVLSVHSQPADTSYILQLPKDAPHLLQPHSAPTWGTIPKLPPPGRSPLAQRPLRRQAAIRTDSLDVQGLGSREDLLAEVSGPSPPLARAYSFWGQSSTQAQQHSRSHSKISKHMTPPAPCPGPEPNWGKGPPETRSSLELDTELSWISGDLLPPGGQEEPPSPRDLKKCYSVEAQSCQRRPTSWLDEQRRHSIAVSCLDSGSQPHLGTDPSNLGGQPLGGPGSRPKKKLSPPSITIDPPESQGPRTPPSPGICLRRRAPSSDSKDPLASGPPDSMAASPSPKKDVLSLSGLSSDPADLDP

| SMILES | IC50 [1] | IC50 [2] | IC50 [3] |
| --- | --- | --- | --- |
| CS(=O)(=O)c1cc(C(F)(F)F)ccc1C(=O)N[C@H]1CC[C@@](F)(S(=O)(=O)c2cccc(OC(F)(F)F)c2)CC1 [Compound 254] | 740 nM | 260 nM | 370 nM |
| Cn1nc(C(F)(F)F)cc1C(=O)N[C@H]1CC[C@@](F)(S(=O)(=O)c2cccc(OC(F)(F)F)c2)CC1 [Compound 255, N-((1S,4S)-4-fluoro-4-(3-(trifluoromethoxy)phenylsulfonyl)cyclohexyl)-1-methyl-3-(trifluoromethyl)-1H-pyrazole-5-carboxamide] | 2010 nM | 3320 nM | 210 nM |
| O=C(N[C@H]1CC[C@@](F)(S(=O)(=O)c2cccc(OC(F)(F)F)c2)CC1)c1ccc(F)c(Cl)c1 [Compound 256, 3-chloro-4-fluoro-N-((1S,4S)-4-fluoro-4-(3-(trifluoromethoxy)phenylsulfonyl)cyclohexyl)benzamide] | 2010 nM | 3320 nM | 150 nM |
| CS(=O)(=O)c1nc(C(F)(F)F)ccc1C(=O)N[C@H]1CC[C@@](F)(S(=O)(=O)c2cccc(OC(F)(F)F)c2)CC1 [Compound 257] | 6900 nM | 9020 nM | 680 nM |
| CS(=O)(=O)c1cc(C(F)(F)F)cnc1C(=O)N[C@H]1CC[C@@](F)(S(=O)(=O)c2cccc(C(F)(F)F)c2)CC1 [Compound 259, N-((1S,4S)-4-fluoro-4-(3-(trifluoromethyl)phenylsulfonyl)cyclohexyl)-3-(methylsulfonyl)-5-(trifluoromethyl)picolinamide] | 6110 nM | 9620 nM | 500 nM |
| CS(=O)(=O)c1nc(C(F)(F)F)ccc1C(=O)N[C@H]1CC[C@@](F)(S(=O)(=O)c2cccc(C(F)(F)F)c2)CC1 [Compound 260] | 2300 nM | 3650 nM | 1080 nM |
| O=C(N[C@H]1CC[C@@](F)(S(=O)(=O)c2cccc(C(F)(F)F)c2)CC1)c1cnc(C(F)(F)F)nc1 [Compound 261, N-((1S,4S)-4-fluoro-4-(3-(trifluoromethyl)phenylsulfonyl)cyclohexyl)-2-(trifluoromethyl)pyrimidine-5-carboxamide] | > 10000 nM | 7180 nM | 1720 nM |
| CS(=O)(=O)c1cc(Cl)ccc1C(=O)N[C@H]1CC[C@@](F)(S(=O)(=O)c2cccc(C(F)(F)F)c2)CC1 [Compound 262, 4-chloro-N-((1S,4S)-4-fluoro-4-(3-(trifluoromethyl)phenylsulfonyl)cyclohexyl)-2-(methylsulfonyl)benzamide] | 2890 nM | 1470 nM | 250 nM |
| CS(=O)(=O)c1ccc(C(=O)N[C@H]2CC[C@@](F)(S(=O)(=O)c3cccc(C(F)(F)F)c3)CC2)c(Cl)c1 [Compound 263, 2-chloro-N-((1S,4S)-4-fluoro-4-(3-(trifluoromethyl)phenylsulfonyl)cyclohexyl)-4-(methylsulfonyl)benzamide] | 2230 nM | 1360 nM | 2510 nM |
| O=C(N[C@H]1CC[C@@](F)(S(=O)(=O)c2cccc(C(F)(F)F)c2)CC1)c1cn2cc(C(F)(F)F)ccc2n1 [Compound 264, N-((1S,4S)-4-fluoro-4-(3-(trifluoromethyl)phenylsulfonyl)cyclohexyl)-6-(trifluoromethyl)imidazo[1,2-a]pyridine-2-carboxamide] | 4480 nM | > 10000 nM | 470 nM |
| COc1cc(Cl)ccc1C(=O)N[C@H]1CC[C@@](F)(S(=O)(=O)c2cccc(C(F)(F)F)c2)CC1 [Compound 265, 4-chloro-N-((1S,4S)-4-fluoro-4-(3-(trifluoromethyl)phenylsulfonyl)cyclohexyl)-2-methoxybenzamide] | > 10000 nM | > 10000 nM | 260 nM |
| O=C(N[C@H]1CC[C@@](F)(S(=O)(=O)c2cccc(C(F)(F)F)c2)CC1)c1cc2cnccc2nc1C(F)(F)F [Compound 266, N-((1S,4S)-4-fluoro-4-(3-(trifluoromethyl)phenylsulfonyl)cyclohexyl)-2-(trifluoromethyl)-1,6-naphthyridine-3-carbosamide] | 3670 nM | 5560 nM | 2440 nM |
| O=C(N[C@H]1CC[C@@](F)(S(=O)(=O)c2cccc(C(F)(F)F)c2)CC1)c1cnccc1C(F)(F)F [Compound 267] | 2630 nM | 490 nM | 790 nM |
| O=C(N[C@H]1CC[C@@](F)(S(=O)(=O)c2cccc(C(F)(F)F)c2)CC1)c1ccnc(C(F)(F)F)n1 [Compound 268, N-((1S,4S)-4-fluoro-4-(3-(trifluoromethyl)phenylsulfonyl)cyclohexyl)-2-(trifluoromethyl)pyrimidine-4-carboxamide] | > 10000 nM | 1910 nM | 30 nM |
| O=C(N[C@H]1CC[C@@](F)(S(=O)(=O)c2cccc(C(F)(F)F)c2)CC1)c1ccc(Cl)c(Cl)c1 [Compound 269, 3,4-dichloro-N-((1S,4S)-4-fluoro-4-(3-(trifluoromethyl)phenylsulfonyl)cyclohexyl)benzamide] | > 10000 nM | > 10000 nM | 190 nM |
| O=C(N[C@H]1CC[C@@](F)(S(=O)(=O)c2cccc(C(F)(F)F)c2)CC1)c1ccc(Cl)cc1Cl [Compound 270, 2,4-dichloro-N-((1S,4S)-4-fluoro-4-(3-(trifluoromethyl)phenylsulfonyl)cyclohexyl) benzamide] | 2540 nM | 3580 nM | 210 nM |
| CS(=O)(=O)c1ccc(C(=O)N[C@H]2CC[C@@](F)(S(=O)(=O)c3cccc(C(F)(F)F)c3)CC2)cc1 [Compound 271, N-((1S,4S)-4-fluoro-4-(3-(trifluoromethyl)phenylsulfonyl)cyclohexyl)-4-(methylsulfonyl)benzamide] | 2630 nM | 1650 nM | 8160 nM |
| CS(=O)(=O)c1cc(C(=O)N[C@H]2CC[C@@](F)(S(=O)(=O)c3cccc(C(F)(F)F)c3)CC2)cc(C(F)(F)F)n1 [Compound 273, N-((1R,4R)-4-fluoro-4-(3-(trifluoromethyl)phenylsulfonyl)cyclohexyl)-2-(methylsulfonyl)-6-(trifluoromethyl)isonicotinamide] | > 10000 nM | > 10000 nM | 430 nM |
| O=C(CCC(F)(F)F)N[C@H]1CC[C@@](F)(S(=O)(=O)c2cccc(C(F)(F)F)c2)CC1 [Compound 274, 4,4,4-trifluoro-N-((1S,4S)-4-fluoro-4-(3-(trifluoromethyl)phenylsulfonyl)cyclohexyl)butanamide] | 2540 nM | 1050 nM | 530 nM |
| O=C(N[C@H]1CC[C@@](F)(S(=O)(=O)c2cccc(C(F)(F)F)c2)CC1)C1(C(F)(F)F)CC1 [Compound 275, N-((1S,4S)-4-fluoro-4-(3-(trifluoromethyl)phenylsulfonyl)cyclohexyl)-1-(trifluoromethyl) cyclopropaneCarboxamide] | > 10000 nM | > 10000 nM | 700 nM |
| COc1ccc(C2(C(=O)N[C@H]3CC[C@@](F)(S(=O)(=O)c4cccc(C(F)(F)F)c4)CC3)CC2)cc1 [Compound 276, N-((1S,4S)-4-fluoro-4-(3-(trifluoromethyl)phenylsulfonyl)cyclohexyl)-1-(4-methoxyphenyl) cyclopropanecarboxamide] | > 10000 nM | 2300 nM | 380 nM |
| O=C(N[C@H]1CC[C@@](F)(S(=O)(=O)c2cccc(C(F)(F)F)c2)CC1)C1CCCC1 [Compound 277, N-((1S,4S)-4-fluoro-4-(3-(trifluoromethyl)phenylsulfonyl)cyclohexyl) cyclopentanecarboxamide] | 2460 nM | 540 nM | 470 nM |
| CC(C)(C)CC(=O)N[C@H]1CC[C@@](F)(S(=O)(=O)c2cccc(C(F)(F)F)c2)CC1 [Compound 278, N-((1S,4S)-4-fluoro-4-(3-(trifluoromethyl)phenylsulfonyl)cyclohexyl)-3,3-dimethylbutanamide] | 2480 nM | 2230 nM | 280 nM |
| O=C(N[C@H]1CC[C@@](F)(S(=O)(=O)c2cccc(C(F)(F)F)c2)CC1)C1Cc2ccccc2N1 (stereo partly drawn) [Compound 279, N-((1S,4S)-4-fluoro-4-(3-(trifluoromethyl)phenylsulfonyl)cyclohexyl) indoline-2-carboxamide] | > 10000 nM | 2090 nM | 450 nM |
| CC(C)S(=O)(=O)c1cc(C(F)(F)F)cnc1C(=O)N[C@H]1CC[C@@](F)(S(=O)(=O)c2cccc(C(F)(F)F)c2)CC1 [Compound 281, N-((1S,4S)-4-fluoro-4-(3-(trifluoromethyl)phenylsulfonyl)cyclohexyl)-3-(isopropylsulfonyl)-5-(trifluoromethyl)picolinamide] | 8530 nM | 1460 nM | 30 nM |
| O=C(N[C@H]1CC[C@@](F)(S(=O)(=O)c2cccc(C(F)(F)F)c2)CC1)[C@@H]1C[C@@H](c2ccccc2)CN1 [Compound 285, (2S,4S)-N-((1S,4R)-4-fluoro-4-(3-(trifluoromethyl)phenylsulfonyl)cyclohexyl)-4-phenylpyrrolidine-2-carboxamide] | > 10000 nM | 1280 nM | 360 nM |
| O=C(N[C@H]1CC[C@@](F)(S(=O)(=O)c2cccc(C(F)(F)F)c2)CC1)[C@@H]1C[C@H](c2ccccc2)CN1 [Compound 286, (2S,4R)-N-((1S,4R)-4-fluoro-4-(3-(trifluoromethyl)phenylsulfonyl)cyclohexyl)-4-phenylpyrrolidine-2-carboxamide] | 3190 nM | 1540 nM | 390 nM |
